Experimental findings from ChEMBL document CHEMBL3507680, “University of Dundee, Gates Library screen for HepG2 cell viability” are described below.

The structures appear in SMILES notation.

This data set in a line: Human HepG2 cell viability assay in 384 well format. The data set is classed as toxicity, cell-based. Further details: dose 125 nL, time 70.5 hour; cytotoxicity at 70.5 h: concentration not given beside the values. To be noted: HepG2 cells, read-out: Inhibition.
Turning to `CCCN1CCCn2nc(CNC(=O)CC(C)n3ccnc3C)cc2C1` (centres undefined), the cytotoxicity at 70.5 h came out at 9.04%. For `Cc1ccc(-c2nc(CN3CCOCC3)no2)cc1N1CCNC1=O` the value was -6.32%; for `CC(NC(=O)CN(C)S(C)(=O)=O)c1ccc(F)cc1` (centres undefined), -11.2%; for `O=C1CCC(C(=O)NCc2nncn2-c2ccccc2)CN1` (centres undefined), -12.6%. For `Cc1ccc(CN2CCN(C3CCC3)CC2CCO)o1` (centres undefined), the cytotoxicity at 70.5 h is -10.1%. For `C1CCC(NCCN2CCOCC2)C1` the value was 16.9%; for `CC(C)(N)c1cn(C2CCN(c3ncccc3Cl)CC2)nn1`, -9.17%; for `CN(C)C(=O)N1CCN(CCCOc2ccccc2)[C@H]2CS(=O)(=O)C[C@H]21`, -5.64%. For `COCCCN(CCOC)C(=O)Nc1ccc(C)cc1C` the value was 0.857%; for `COCCN1CCN(C(=O)C(c2cccc(F)c2)N(C)C)CC1` (centres undefined), 1.27%. `Cc1cccc(S(=O)(=O)N2CC[C@H]3[C@H]2CCN3c2ncccn2)c1`: the cytotoxicity at 70.5 h was -6.57%. For `COCc1ncn2c1CN(S(=O)(=O)c1ccc(C)cc1)CC2` the value was -0.994%; for `CCOc1cc(CN(C)CCOC)ccc1OC(F)F`, 12.4%. For `CNc1cc(C2CCCN2C(=O)CCc2cnn(C)c2C)ccn1` (centres undefined) the value was -8.49%; for `Cc1cccc(C(=O)N2CCCC(c3noc(C)n3)C2)n1` (centres undefined), -1.99%; for `CCc1csc(NC(=O)NCc2ccccn2)n1`, -2.4%. For `COc1ncc(C)cc1NC(=O)COCC(F)(F)F` the value was 2.73%; for `O=C(CN1CCN(c2ncnc3cccc(F)c23)CC1)N1CCCC1`, -9.51%.

In the case of `CCN1CCC(c2nc3ccc(NC(C)C)cn3n2)CC1`, the cytotoxicity at 70.5 h was -0.678%.

With `C[C@@H]1CN(C(=O)C2(Cn3cccn3)CC2)C[C@@]1(O)C1CCC1`, the cytotoxicity at 70.5 h was -0.77%. Consider `Cc1cc(-c2cnc(NC3CC3)nc2-c2ccoc2)on1`, for which the cytotoxicity at 70.5 h came out at 2.18%. Regarding `CS(=O)(=O)N1CCCCCC1C1CCN(c2ncccn2)CC1` (centres undefined), the cytotoxicity at 70.5 h came out at 15.3%. Under `O=C(c1ccnc(N2CCOC(c3ccc(Cl)cc3)C2)c1)N1CCCC1` (centres undefined) stands -15.4%. Under `COc1ccc(Nc2ccc(C#N)cn2)cc1N1CCCC1=O` stands 5.76%.

For `Cc1n[nH]c(CCC(=O)N2CCOC(Cc3ccccc3)C2)c1C` (centres undefined), the cytotoxicity at 70.5 h is -7.3%.

`CCN1CC2(CC1=O)CN(Cc1ccco1)CCN(C(=O)C(C)C)C2` (centres undefined): the cytotoxicity at 70.5 h turned out to be 7.56%. For the compound `COCCCN1Cc2cccc(NC(=O)c3ccccc3C)c2C1`, the cytotoxicity at 70.5 h came out at 15.2%. Under `CC(C)[C@@H]1CN(C(=O)CN(C)Cc2ccc(F)cc2)C[C@H]1C(=O)O` stands -1.04%. As for `CCN(CC)c1ccc(NS(=O)(=O)c2cccnc2)cn1`, the cytotoxicity at 70.5 h was -1.98%. In the case of `Cc1nc(CC(=O)N2CCOC(c3nc(C(C)(C)C)n[nH]3)C2)cs1` (centres undefined), the cytotoxicity at 70.5 h stood at 20.6%. Consider `CN(C)c1nc(N)nc(CSCCC(=O)Nc2ccc(F)cc2)n1`, for which the cytotoxicity at 70.5 h is -7.07%.

On to `CCc1ncc2c(n1)CN(Cc1nnc(C(C)C)o1)CC2`, for which the cytotoxicity at 70.5 h was -99.6%. For `Cc1ccoc1C(=O)N1CC[C@H]2[C@H](C[C@@H](CN3CCCC3)N2C)C1` the value was 4.09%; for `Cc1ncnc2c1CCN(C(=O)c1ccncc1F)CC2`, -8.13%. Consider `COc1ccccc1CC(=O)NCc1ccnc(NC2CC2)c1`, for which the cytotoxicity at 70.5 h is -0.149%. For `CC(C)(NS(C)(=O)=O)C(=O)NCc1cccc(Br)c1`, the cytotoxicity at 70.5 h is -7.07%. On to `COc1c(Br)c(C(=O)NC2CC2)nn1C`, for which the cytotoxicity at 70.5 h turned out to be 0.124%. Under `CCN(CC)CC[C@H]1CN(C(=O)C(C)(C)C)CC[C@H]1CC(=O)O` stands -8.97%; under `O=C(CC1CC1)N1CCC2(COCc3cnc(-c4cccnc4)nc32)C1` (centres undefined), -2.06%. As to `COc1ccc(CNC(Cc2cccs2)c2nc(C)c(C)s2)cc1OC` (centres undefined), the cytotoxicity at 70.5 h was 2.99%. For `COc1cc(CN(C)C(=O)NCCC(=O)NC2CCCC2)ccc1SC` the value was 14.4%. For `CC(C(=O)NCc1ccnc(OC2CCCC2)c1)n1cncn1` (centres undefined), the cytotoxicity at 70.5 h was -3.9%. Under `CC(C)c1cncnc1-c1cc(F)cc2c1OC(CN)C2` (centres undefined) stands -1.8%; under `O=S(=O)(CC1CCCN1S(=O)(=O)c1cccnc1)c1ccccc1` (centres undefined), -8.38%; under `COc1ccc2c(ccn2CCC(=O)O)c1`, 27.9%. Under `Cc1ncnc(NC(CC(C)(C)C)c2cccnc2)c1C` (centres undefined) stands -2.93%; under `Cc1cc(CN(C)C(=O)c2cccc(N3CCCS3(=O)=O)c2)no1`, -12.6%; under `O=C1CC2(CCN(C(=O)c3ccc4c(c3)CCCO4)C2)C(=O)N1` (centres undefined), 2.37%.

In the case of `COC1COC2(CCN(C(=O)c3ncccn3)CC2)C1` (centres undefined), the cytotoxicity at 70.5 h amounted to 14.8%. On to `Cc1ccc(CN2C[C@@H]3[C@@H](C(=O)NCC4CC4)CCS(=O)(=O)[C@@H]3C2)cc1`, for which the cytotoxicity at 70.5 h is -1.55%.

For `Cc1cc(N2CCCC(N(C)C)C2)n2nc(C)cc2n1` (centres undefined), the cytotoxicity at 70.5 h was -17%. Consider `O=c1c(NCc2ccncc2)c(NCC(O)CN2CCOCC2)c1=O` (centres undefined), for which the cytotoxicity at 70.5 h was -17.9%.

Consider `CN(C)CCn1c2c(ccc1=O)CC(NCc1cccnc1)CC2` (centres undefined), for which the cytotoxicity at 70.5 h is -0.247%. For `CN(C)c1cccc(C2CCN(C3COCC3O)CC2)n1` (centres undefined) the value was -4.45%; for `Cc1ccc(N(CC(=O)NCc2nnc3n2CCC3)S(C)(=O)=O)cc1`, 5.02%. For `Cc1cccc(CC(=O)Nc2cnn(C3CCOC3)c2)c1` (centres undefined) the value was -13.6%. As for `Cc1cnc(CNC(=O)[C@@H]2CC[C@@H]3[C@@H](CCN3Cc3ccco3)O2)cn1`, the cytotoxicity at 70.5 h is -11.9%. With `CCC(C)N(Cc1ccncc1)C(=O)CCSC` (centres undefined), the cytotoxicity at 70.5 h is -10.6%. For `O=C(NC1CCNC1)C1(N2CCCCC2)Cc2ccccc2C1` (centres undefined) the value was 1.09%. Under `O=C(c1ccsc1)N1C[C@H]2CN(Cc3cccc(F)c3)C(=O)[C@H]2C1` stands -1.45%; under `O=S1(=O)C[C@@H]2[C@H](C1)N(Cc1ccc3ccccc3c1)CCN2CC1CC1`, 2.29%. For `Cc1cc(CN(C)C(=O)CC(C)C)no1` the value was -2.9%; for `O=S(=O)(NC1CCC12CCN(CC1CC1)CC2)c1ccccc1` (centres undefined), 11.7%.

On to `CN(c1cccnn1)C1CCN(C(=O)Cc2c[nH]c3ccccc23)CC1`, for which the cytotoxicity at 70.5 h was -4.23%. As for `CCOCc1ncn2c1CN(C(=O)Nc1cccc(F)c1)CC2`, the cytotoxicity at 70.5 h was -13.3%. As to `Cc1cc(C)n(-c2cncc(NCCNC(=O)C(C)(C)C)n2)n1`, the cytotoxicity at 70.5 h was -9.22%. As for `Cc1cc(C)n(-c2ccccc2NC(=O)NCCS(=O)(=O)CC(C)C)n1`, the cytotoxicity at 70.5 h is -8.6%.

For the compound `Cc1oncc1C(=O)NCc1cc(=O)n2c(n1)CN(C(C)C)CCC2`, the cytotoxicity at 70.5 h was -4.07%. Under `Cc1cccc(-c2nc(C)nn2CC(=O)N(C)C2CC2)c1` stands -5.01%; under `Cn1cccc1C(=O)N1C[C@H]2CN(CC3CC3)C(=O)[C@H]2C1`, 6.81%. As for `CCCN1CCN(C(=O)c2cc3ccccc3cn2)[C@H]2CS(=O)(=O)C[C@H]21`, the cytotoxicity at 70.5 h was -12%. For `Cc1nccc(-c2ccccc2)c1C(=O)N1CCC2(CCCO2)CC1` the value was 2.47%; for `COCCN1CCC(NCc2cccc(C)c2)C1` (centres undefined), -12.6%. For the compound `O=C(c1ccco1)N1C[C@@H]2CCN(c3cccnc3)C[C@@H]2C1`, the cytotoxicity at 70.5 h is -11.6%.

On to `CN(C)c1nc2n(c(=O)n1)CCN2C(=O)Nc1ccc(Cl)c(Cl)c1`, for which the cytotoxicity at 70.5 h was -10.9%. In the case of `CC(C)c1cccc(NC(=O)N2CC(N(C)C)C2)c1`, the cytotoxicity at 70.5 h is -0.462%. As for `O=S(=O)(NCC1CCN(c2cnccn2)CC1)c1cccs1`, the cytotoxicity at 70.5 h worked out at 5.13%. Under `c1cnc(-c2nc(CN3CCC(c4ccn[nH]4)CC3)cs2)nc1` stands 0.264%; under `Cc1cc(NC(=O)NCCO)nn1-c1ccc(Cl)cc1Cl`, 0.498%; under `Cc1nn(C)c(C)c1C1COCCN1c1ncncc1Br` (centres undefined), -4.79%.

`CN(C)[C@H]1COC[C@@H]2CN(Cc3ccc4c(c3)OCO4)C[C@@H]21`: the cytotoxicity at 70.5 h was -3.62%. As to `CCn1nc(-c2ccccc2F)ccc1=O`, the cytotoxicity at 70.5 h was -8.76%. Under `O=C(NCC(=O)N1CCc2ccccc2C1)c1cnccn1` stands -6.74%. On to `COCCCNC(=O)C(C)(C)N(C)C1CCCC1`, for which the cytotoxicity at 70.5 h is -0.184%. For `O=C(NC1CC1)c1cccc(S(=O)(=O)NCCc2nc(C3CC3)no2)c1` the value was -6.39%; for `Cc1ccccc1N1CCCN(C(=O)CN2C(=O)OC[C@@H]2C(C)C)CC1`, 25.8%; for `CCSc1ccccc1C(=O)N1CC2(COC(C)(C)OC2)C1`, -4.65%. For `CN1CCN(CC(=O)NCc2ccco2)Cc2ccccc21` the value was -13.5%.

For `CCOc1ccc(Cl)cc1C1CCCCN1` (centres undefined), the cytotoxicity at 70.5 h is -17.3%. Turning to `CS(=O)(=O)NC1CCCN(C(=O)NCc2cc[nH]n2)C1` (centres undefined), the cytotoxicity at 70.5 h was found to be 10.8%. As to `Cc1cccc(CN2C(=O)C[C@H]3[C@@H]2CCN3Cc2ccccn2)n1`, the cytotoxicity at 70.5 h was determined as 23.7%. Under `Cc1nccn1-c1cc(CNC(=O)c2ccnc(N(C)C)c2)ccn1` stands -10.5%.

On to `CCC(CC)CN1CCC2(CCC(=O)N2OCc2ccccc2F)CC1`, for which the cytotoxicity at 70.5 h came out at 21.6%. For `O=C(O)CCNC(=O)Cc1csc(-c2cccc(Cl)c2)n1`, the cytotoxicity at 70.5 h was -14%. For `N#CC1C(=O)Nc2c(cnn2C2CCCC2)C12CCCCC2` (centres undefined) the value was -1.92%.

Turning to `Cc1cc(C)c2c(c1)C(NCc1c(C)nn(C)c1N(C)C)CCO2` (centres undefined), the cytotoxicity at 70.5 h amounted to 3.6%.

Take `COC(=O)Cc1cccc(NC(=O)Cc2ccon2)c1`: the cytotoxicity at 70.5 h came to 23.7%. Under `COc1ccnc(NCC2CN(C3CC3)CCO2)n1` (centres undefined) stands 10.1%.

Regarding `CCC(NS(C)(=O)=O)c1ccccc1OC` (centres undefined), the cytotoxicity at 70.5 h is -1.94%.
